According to article PMC9276671, “A first-in-human Phase I dose-escalation trial of the novel therapeutic peptide, ALM201, demonstrates a favourable safety profile in unselected patients with ovarian cancer and other advanced solid tumours” (British Journal of Cancer, 2022):
No end group written: not given here.

Assay: Plasma pharmacokinetics of ALM201 in Phase I patients (validated LC-MS/MS, Phoenix WinNonlin)
Details: for AUC(0-t): AUC0-t; for AUC(0-t) / Cmax: Gmean (CV); for level at 0.25 h: day 1 cycle 1, 0.25 h after dosing; for level at 0.75 h: day 1 cycle 1, 0.75 h after dosing; for Tmax: median
[1] = cycle 1, excluding patient 03.012
[2] = human, plasma, sc, 10 mg, 10 mg SC, day 1 cycle 1, n = 1, plasma LC-MS/MS
[3] = human, plasma, sc, 10 mg, 10 mg SC, day 3 cycle 1, n = 1, plasma LC-MS/MS
[4] = human, plasma, sc, 10 mg, 10 mg SC, day 18 cycle 1, n = 1, plasma LC-MS/MS
[5] = human, plasma, sc, 10 mg, 10 mg SC, day 18 cycle 2, n = 1, plasma LC-MS/MS
[6] = human, plasma, sc, 10 mg, 10 mg SC, day 18 cycle 4, n = 1, plasma LC-MS/MS
[7] = human, plasma, sc, 10 mg, 10 mg SC, day 18 cycle 6, n = 1, plasma LC-MS/MS
[8] = human, plasma, sc, 10 mg, Plasma concentration, geometric mean (CV%), 10 mg SC, n = 1, LC-MS/MS
[9] = human, plasma, sc, 20 mg, 20 mg SC, day 1 cycle 1, n = 1, plasma LC-MS/MS
[10] = human, plasma, sc, 20 mg, 20 mg SC, day 3 cycle 1, n = 1, plasma LC-MS/MS
[11] = human, plasma, sc, 20 mg, 20 mg SC, day 18 cycle 1, n = 1, plasma LC-MS/MS
[12] = human, plasma, sc, 20 mg, 20 mg SC, day 18 cycle 2, n = 1, plasma LC-MS/MS
[13] = human, plasma, sc, 20 mg, Plasma concentration, geometric mean (CV%), 20 mg SC, n = 1, LC-MS/MS

Sequence: IRQQPRDPPTETLELEVSPDPAS [ALM201]
- Plasma concentration, geometric mean (CV%) (10 mg SC, day 1 cycle 1, 4 h after dosing, n = 1, LC-MS/MS): NQ (not quantifiable (less than assay limit of quantification of 100 ng/mL))
- Plasma concentration, geometric mean (CV%) (10 mg SC, day 1 cycle 1, 5 h after dosing, n = 1, LC-MS/MS): NQ (not quantifiable (less than assay limit of quantification of 100 ng/mL))
- Plasma concentration, geometric mean (CV%) (10 mg SC, day 1 cycle 1, 6 h after dosing, n = 1, LC-MS/MS): NQ (not quantifiable (less than assay limit of quantification of 100 ng/mL))
- Plasma concentration, geometric mean (CV%) (10 mg SC, day 1 cycle 1, 22 h after dosing, n = 1, LC-MS/MS): NQ (not quantifiable (less than assay limit of quantification of 100 ng/mL))
- Plasma concentration, geometric mean (CV%) (10 mg SC, day 3 cycle 1, 5 h after dosing, n = 1, LC-MS/MS): NQ (not quantifiable (less than assay limit of quantification of 100 ng/mL))
- Plasma concentration, geometric mean (CV%) (10 mg SC, day 18 cycle 1, 5 h after dosing, n = 1, LC-MS/MS): NQ (not quantifiable (less than assay limit of quantification of 100 ng/mL))
- Plasma concentration, geometric mean (CV%) (20 mg SC, day 1 cycle 1, 4 h after dosing, n = 1, LC-MS/MS): NQ (not quantifiable (less than assay limit of quantification of 100 ng/mL))
- Plasma concentration, geometric mean (CV%) (20 mg SC, day 1 cycle 1, 5 h after dosing, n = 1, LC-MS/MS): NQ (not quantifiable (less than assay limit of quantification of 100 ng/mL))
- Plasma concentration, geometric mean (CV%) (20 mg SC, day 1 cycle 1, 6 h after dosing, n = 1, LC-MS/MS): NQ (not quantifiable (less than assay limit of quantification of 100 ng/mL))
- Plasma concentration, geometric mean (CV%) (20 mg SC, day 1 cycle 1, 22 h after dosing, n = 1, LC-MS/MS): NQ (not quantifiable (less than assay limit of quantification of 100 ng/mL))
- Plasma concentration, geometric mean (CV%) (20 mg SC, day 3 cycle 1, 5 h after dosing, n = 1, LC-MS/MS): NQ (not quantifiable (less than assay limit of quantification of 100 ng/mL))
- Plasma concentration, geometric mean (CV%) (20 mg SC, day 18 cycle 1, 5 h after dosing, n = 1, LC-MS/MS): NQ (not quantifiable (less than assay limit of quantification of 100 ng/mL))
- Tmax, median (20 mg SC, day 18 cycle 2, n = 1, plasma LC-MS/MS): 1 h
- Plasma concentration, geometric mean (CV%) (40 mg SC, day 1 cycle 1, 6 h after dosing, n = 1, LC-MS/MS): NQ (not quantifiable (less than assay limit of quantification of 100 ng/mL))
- Plasma concentration, geometric mean (CV%) (40 mg SC, day 1 cycle 1, 22 h after dosing, n = 1, LC-MS/MS): NQ (not quantifiable (less than assay limit of quantification of 100 ng/mL))
- Cmax, Gmean (CV) (40 mg SC, day 18 cycle 2, n = 1, plasma LC-MS/MS): 0.583 µg/mL
- Plasma concentration, geometric mean (CV%) (80 mg SC, day 1 cycle 1, 22 h after dosing, n = 3, LC-MS/MS): NQ (not quantifiable (less than assay limit of quantification of 100 ng/mL))
- Tmax, median (80 mg SC, day 3 cycle 1, n = 3, plasma LC-MS/MS): 1.5 h
- Plasma concentration, geometric mean (CV%) (100 mg SC, day 1 cycle 1, 22 h after dosing, n = 4, LC-MS/MS): NQ (not quantifiable (less than assay limit of quantification of 100 ng/mL))
- Plasma concentration, geometric mean (CV%) (160 mg SC, day 1 cycle 1, 22 h after dosing, n = 3, LC-MS/MS): NQ (not quantifiable (less than assay limit of quantification of 100 ng/mL))
- Tmax, median (160 mg SC, day 3 cycle 1, n = 3, plasma LC-MS/MS): 1.52 h
- Tmax, median (160 mg SC, day 18 cycle 1, n = 3, plasma LC-MS/MS): 1.5 h
- Plasma concentration, geometric mean (CV%) (200 mg SC, day 1 cycle 1, 22 h after dosing, n = 4, LC-MS/MS): NQ (not quantifiable (less than assay limit of quantification of 100 ng/mL))
- AUC0-t, Gmean (CV) (200 mg SC, day 18 cycle 2, n = 2, CV not calculated, plasma LC-MS/MS): 5680 ng·h/mL
- Plasma concentration, geometric mean (CV%) (300 mg SC, day 1 cycle 1, 22 h after dosing, n = 3, LC-MS/MS): NQ (not quantifiable (less than assay limit of quantification of 100 ng/mL))
- AUC0-t, Gmean (CV) (300 mg SC, day 18 cycle 1, n = 3, plasma LC-MS/MS): 12,100 (6) ng.h/mL
- Tmax, median (300 mg SC, day 18 cycle 2, n = 3, plasma LC-MS/MS): 2 h
- Day 18:day 1 AUC0-t ratio, mean ± SD (cycle 1, all patients): 1.27 ± 1.32
- Day 18:day 1 Cmax ratio, mean ± SD (cycle 1, all patients): 1.25 ± 0.97
- Day 18:day 1 AUC0-t ratio, mean ± SD [1]: 0.95 ± 0.26
- Day 18:day 1 Cmax ratio, mean ± SD [1]: 1.03 ± 0.39
- Half-life (human, plasma, sc): ~1.5 h
- AUC(0-t) [2]: 0.485 µg·h/mL
- AUC(0-t) [3]: 0.868 µg·h/mL
- AUC(0-t) [4]: 0.817 µg·h/mL
- AUC(0-t) [5]: 0.702 µg·h/mL
- AUC(0-t) [6]: 0.476 µg·h/mL
- AUC(0-t) [7]: 1.04 µg·h/mL
- Cmax [2]: 0.2 µg/mL
- Cmax [3]: 0.406 µg/mL
- Cmax [4]: 0.352 µg/mL
- Cmax [5]: 0.288 µg/mL
- Cmax [6]: 0.193 µg/mL
- Cmax [7]: 0.47 µg/mL
- level at 0.25 h [8]: 0.106 µg/mL
- level at 0.75 h [8]: 0.15 µg/mL
- level at 1.5 h (human, plasma, sc, 10 mg, Plasma concentration, geometric mean (CV%), 10 mg SC, day 1 cycle 1, 1.5 h after dosing, n = 1, LC-MS/MS): 0.2 µg/mL
- level at 2 h (human, plasma, sc, 10 mg, Plasma concentration, geometric mean (CV%), 10 mg SC, day 1 cycle 1, 2 h after dosing, n = 1, LC-MS/MS): 0.199 µg/mL
- level at 3 h (human, plasma, sc, 10 mg, Plasma concentration, geometric mean (CV%), 10 mg SC, day 1 cycle 1, 3 h after dosing, n = 1, LC-MS/MS): 0.153 µg/mL
- level at 0.5 h (human, plasma, sc, 10 mg, Plasma concentration, geometric mean (CV%), 10 mg SC, day 3 cycle 1, 0.5 h after dosing, n = 1, LC-MS/MS): 0.406 µg/mL
- level at 1 h (human, plasma, sc, 10 mg, Plasma concentration, geometric mean (CV%), 10 mg SC, day 3 cycle 1, 1 h after dosing, n = 1, LC-MS/MS): 0.325 µg/mL
- level at 1.5 h (human, plasma, sc, 10 mg, Plasma concentration, geometric mean (CV%), 10 mg SC, day 3 cycle 1, 1.5 h after dosing, n = 1, LC-MS/MS): 0.294 µg/mL
- level at 2 h (human, plasma, sc, 10 mg, Plasma concentration, geometric mean (CV%), 10 mg SC, day 3 cycle 1, 2 h after dosing, n = 1, LC-MS/MS): 0.242 µg/mL
- level at 3.5 h (human, plasma, sc, 10 mg, Plasma concentration, geometric mean (CV%), 10 mg SC, day 3 cycle 1, 3.5 h after dosing, n = 1, LC-MS/MS): 0.127 µg/mL
- level at 0.5 h (human, plasma, sc, 10 mg, Plasma concentration, geometric mean (CV%), 10 mg SC, day 18 cycle 1, 0.5 h after dosing, n = 1, LC-MS/MS): 0.188 µg/mL
- level at 1 h (human, plasma, sc, 10 mg, Plasma concentration, geometric mean (CV%), 10 mg SC, day 18 cycle 1, 1 h after dosing, n = 1, LC-MS/MS): 0.283 µg/mL
- level at 1.5 h (human, plasma, sc, 10 mg, Plasma concentration, geometric mean (CV%), 10 mg SC, day 18 cycle 1, 1.5 h after dosing, n = 1, LC-MS/MS): 0.352 µg/mL
- level at 2 h (human, plasma, sc, 10 mg, Plasma concentration, geometric mean (CV%), 10 mg SC, day 18 cycle 1, 2 h after dosing, n = 1, LC-MS/MS): 0.325 µg/mL
- level at 3.5 h (human, plasma, sc, 10 mg, Plasma concentration, geometric mean (CV%), 10 mg SC, day 18 cycle 1, 3.5 h after dosing, n = 1, LC-MS/MS): 0.113 µg/mL
- level at 0.5 h (human, plasma, sc, 10 mg, Plasma concentration, geometric mean (CV%), 10 mg SC, day 18 cycle 2, 0.5 h after dosing, n = 1, LC-MS/MS): 0.158 µg/mL
- level at 1 h (human, plasma, sc, 10 mg, Plasma concentration, geometric mean (CV%), 10 mg SC, day 18 cycle 2, 1 h after dosing, n = 1, LC-MS/MS): 0.193 µg/mL
- level at 1.5 h (human, plasma, sc, 10 mg, Plasma concentration, geometric mean (CV%), 10 mg SC, day 18 cycle 2, 1.5 h after dosing, n = 1, LC-MS/MS): 0.242 µg/mL
- level at 2 h (human, plasma, sc, 10 mg, Plasma concentration, geometric mean (CV%), 10 mg SC, day 18 cycle 2, 2 h after dosing, n = 1, LC-MS/MS): 0.288 µg/mL
- level at 3.5 h (human, plasma, sc, 10 mg, Plasma concentration, geometric mean (CV%), 10 mg SC, day 18 cycle 2, 3.5 h after dosing, n = 1, LC-MS/MS): 0.161 µg/mL
- level at 1 h (human, plasma, sc, 10 mg, Plasma concentration, geometric mean (CV%), 10 mg SC, day 18 cycle 4, 1 h after dosing, n = 1, LC-MS/MS): 0.176 µg/mL
- level at 1.5 h (human, plasma, sc, 10 mg, Plasma concentration, geometric mean (CV%), 10 mg SC, day 18 cycle 4, 1.5 h after dosing, n = 1, LC-MS/MS): 0.193 µg/mL
- level at 2 h (human, plasma, sc, 10 mg, Plasma concentration, geometric mean (CV%), 10 mg SC, day 18 cycle 4, 2 h after dosing, n = 1, LC-MS/MS): 0.171 µg/mL
- level at 3.5 h (human, plasma, sc, 10 mg, Plasma concentration, geometric mean (CV%), 10 mg SC, day 18 cycle 4, 3.5 h after dosing, n = 1, LC-MS/MS): 0.157 µg/mL
- level at 0.5 h (human, plasma, sc, 10 mg, Plasma concentration, geometric mean (CV%), 10 mg SC, day 18 cycle 6, 0.5 h after dosing, n = 1, LC-MS/MS): 0.171 µg/mL
- level at 1.5 h (human, plasma, sc, 10 mg, Plasma concentration, geometric mean (CV%), 10 mg SC, day 18 cycle 6, 1.5 h after dosing, n = 1, LC-MS/MS): 0.47 µg/mL
- level at 2 h (human, plasma, sc, 10 mg, Plasma concentration, geometric mean (CV%), 10 mg SC, day 18 cycle 6, 2 h after dosing, n = 1, LC-MS/MS): 0.403 µg/mL
- level at 3.5 h (human, plasma, sc, 10 mg, Plasma concentration, geometric mean (CV%), 10 mg SC, day 18 cycle 6, 3.5 h after dosing, n = 1, LC-MS/MS): 0.179 µg/mL
- Tmax [2]: 1.45 h
- Tmax [3]: 0.5 h
- Tmax [4]: 1.58 h
- Tmax [5]: 2 h
- Tmax [6]: 1.53 h
- Tmax [7]: 1.85 h
- AUC(0-t) [9]: 1.04 µg·h/mL
- AUC(0-t) [10]: 1.16 µg·h/mL
- AUC(0-t) [11]: 0.718 µg·h/mL
- AUC(0-t) [12]: 1.02 µg·h/mL
- Cmax [9]: 0.542 µg/mL
- Cmax [10]: 0.614 µg/mL
- Cmax [11]: 0.319 µg/mL
- Cmax [12]: 0.394 µg/mL
- level at 0.25 h [13]: 0.136 µg/mL
- level at 0.75 h [13]: 0.368 µg/mL
